Data reported in ChEMBL document CHEMBL4130368, “Thienopyrimidine derivatives exert their anticancer efficacy via apoptosis induction, oxidative stress and mitotic catastrophe” (Eur J Med Chem, 2017).
Active and inactive are the calls of the source. The calls are words filed in the database; no cut-off is given here.

Key:
[1] = tested on: HCT-116; assay: Antiproliferative activity against human HCT116 cells after 72 hrs by MTT assay; type: functional, cell-based; conditions: HCT-116, 72 h
[2] = tested on: HCT-15; assay: Antiproliferative activity against human HCT15 cells after 72 hrs by MTT assay; type: functional, cell-based; conditions: HCT-15, 72 h
[3] = tested on: LN-229; assay: Antiproliferative activity against human LN229 cells after 72 hrs by MTT assay; type: functional, cell-based; conditions: LN-229, 72 h
[4] = Selectivity index, ratio of IC50 for CHO cells to IC50 for human HCT116 cells; type: toxicity; conditions: Chinese hamster (CHO cells), CHO cells versus HCT116 cells, read-out: Ratio IC50
[5] = tested on: 2008; assay: Inhibition of colony formation in human OV2008 cells at 1 to 2 uM after 24 hrs by crystal violet dye based assay; type: functional, cell-based
[6] = tested on: A2780; assay: Inhibition of colony formation in human A2780 cells at 1 to 2 uM after 24 hrs by crystal violet dye based assay; type: functional, cell-based
[7] = tested on: HCT-116; assay: Cell cycle arrest in human HCT116 cells assessed as accumulation at G1 phase at 1 uM measured after overnight incubation by propidium iodide staining-based flow cytometry (reference value: 63.5%); type: functional
[8] = tested on: HCT-116; assay: Cell cycle arrest in human HCT116 cells assessed as accumulation at […] at 1 uM measured after overnight incubation by propidium iodide staining-based flow cytometry (reference value: 9.70%); type: functional
[9] = tested on: HCT-116; assay: Cell cycle arrest in human HCT116 cells assessed as accumulation at G2 phase at 1 uM measured after overnight incubation by propidium iodide staining-based flow cytometry (reference value: 24%); type: functional
[10] = tested on: HCT-116; assay: Cell cycle arrest in human HCT116 cells assessed as accumulation at […] at 2 uM measured after overnight incubation by propidium iodide staining-based flow cytometry (reference value: 9.70%); type: functional
[11] = tested on: 2008; assay: Cell cycle arrest in human OV2008 cells assessed as accumulation at subG1 phase at 1 uM measured after overnight incubation by propidium iodide staining-based flow cytometry (reference value: 2.64%); type: functional
[12] = tested on: 2008; assay: Cell cycle arrest in human OV2008 cells assessed as accumulation at S phase at 1 uM measured after overnight incubation by propidium iodide staining-based flow cytometry (reference value: 10.8%); type: functional
[13] = tested on: 2008; assay: Cell cycle arrest in human OV2008 cells assessed as accumulation at G2 phase at 1 uM measured after overnight incubation by propidium iodide staining-based flow cytometry (reference value: 26.9%); type: functional
[14] = tested on: 2008; assay: Cell cycle arrest in human OV2008 cells assessed as accumulation at subG1 phase at 2 uM measured after overnight incubation by propidium iodide staining-based flow cytometry (reference value: 2.64%); type: functional
[15] = tested on: A2780; assay: Cell cycle arrest in human A2780 cells assessed as accumulation at G2 phase at 1 uM measured after overnight incubation by propidium iodide staining-based flow cytometry (reference value: 24.9%); type: functional
[16] = tested on: A2780; assay: Cell cycle arrest in human A2780 cells assessed as accumulation at subG1 phase at 2 uM measured after overnight incubation by propidium iodide staining-based flow cytometry (reference value: 8.88%); type: functional
[17] = tested on: A2780; assay: Cell cycle arrest in human A2780 cells assessed as accumulation at G1 phase at 2 uM measured after overnight incubation by propidium iodide staining-based flow cytometry (reference value: 51.1%); type: functional
[18] = tested on: HCT-116; assay: Induction of cellular oxidative stress in human HCT116 cells assessed as increase in ROS levels at 0.5 to 4 uM after 48 hrs by DCFDA dye-based fluorescence microscopic method; type: functional, cell-based
[19] = tested on: A2780; assay: Induction of cellular oxidative stress in human A2780 cells assessed as increase in ROS levels at 0.5 to 4 uM after 48 hrs by DCFDA dye-based fluorescence microscopic method; type: functional, cell-based
[20] = tested on: HCT-116; assay: Induction of mitotic catastrophe in human HCT116 cells assessed as formation of large with flattened cells at 0.5 to 2 uM measured after overnight incubation by DAPI-staining based microscopy; type: functional, cell-based
[21] = tested on: 2008; assay: Induction of apoptosis in human OV2008 cells assessed as cell shrinkage at 0.5 to 2 uM measured after overnight incubation by DAPI-staining based microscopy; type: functional
[22] = tested on: HCT-116; assay: Induction of apoptosis in human HCT116 cells assessed as condensation of nuclei at 0.5 to 2 uM measured after overnight incubation by DAPI-staining based microscopy; type: functional, cell-based
[23] = tested on: 2008; assay: Induction of apoptosis in human OV2008 cells assessed as condensation of nuclei at 0.5 to 2 uM measured after overnight incubation by DAPI-staining based microscopy; type: functional, cell-based
[24] = tested on: HCT-116; assay: Induction of apoptosis in human HCT116 cells assessed as viable cells at 1 uM measured after overnight incubation by mitotracker red/alexa fluor-488 Annexin V staining-based flow cytometry (reference value: 89%); type: functional; conditions: read-out: Activity
[25] = tested on: HCT-116; assay: Induction of apoptosis in human HCT116 cells assessed as necrotic cells at 1 uM measured after overnight incubation by mitotracker red/alexa fluor-488 Annexin V staining-based flow cytometry (reference value: 2.67%); type: functional
[26] = tested on: HCT-116; assay: Induction of apoptosis in human HCT116 cells assessed as early apoptotic cells at 2 uM measured after overnight incubation by mitotracker red/alexa fluor-488 Annexin V staining-based flow cytometry (reference value: 8.36%); type: functional
[27] = tested on: HCT-116; assay: Induction of apoptosis in human HCT116 cells assessed as necrotic cells at 2 uM measured after overnight incubation by mitotracker red/alexa fluor-488 Annexin V staining-based flow cytometry (reference value: 2.67%); type: functional
[28] = tested on: 2008; assay: Induction of apoptosis in human OV2008 cells assessed as necrotic cells at 1 uM measured after overnight incubation by mitotracker red/alexa fluor-488 Annexin V staining-based flow cytometry (reference value: 6.31%); type: functional
[29] = tested on: 2008; assay: Induction of apoptosis in human OV2008 cells assessed as viable cells at 2 uM measured after overnight incubation by mitotracker red/alexa fluor-488 Annexin V staining-based flow cytometry (reference value: 80.5%); type: functional; conditions: read-out: Activity
[30] = tested on: 2008; assay: Induction of apoptosis in human OV2008 cells assessed as early apoptotic cells at 2 uM measured after overnight incubation by mitotracker red/alexa fluor-488 Annexin V staining-based flow cytometry (reference value: 12.9%); type: functional
[31] = tested on: 2008; assay: Induction of apoptosis in human OV2008 cells assessed as late apoptotic cells at 2 uM measured after overnight incubation by mitotracker red/alexa fluor-488 Annexin V staining-based flow cytometry (reference value: 0.255%); type: functional
[32] = tested on: A2780; assay: Induction of apoptosis in human A2780 cells assessed as late apoptotic cells at 1 uM measured after overnight incubation by mitotracker red/alexa fluor-488 Annexin V staining-based flow cytometry (reference value: 0.015%); type: functional
[33] = tested on: A2780; assay: Induction of apoptosis in human A2780 cells assessed as viable cells at 2 uM measured after overnight incubation by mitotracker red/alexa fluor-488 Annexin V staining-based flow cytometry (reference value: 78.1%); type: functional; conditions: read-out: Activity
[34] = tested on: HCT-116; assay: Antiproliferative activity against bax deficient human HCT116 cells assessed after 72 hrs by MTT assay; type: functional, cell-based; conditions: HCT-116, 72 h
[35] = tested on: HCT-116; assay: Antiproliferative activity against bak deficient human HCT116 cells after 72 hrs by MTT assay; type: functional, cell-based; conditions: HCT-116, 72 h
[36] = tested on: HCT-116; assay: Antiproliferative activity against dko deficient human HCT116 cells after 72 hrs by MTT assay; type: functional, cell-based; conditions: HCT-116, 72 h
[37] = tested on: HCT-116; assay: Induction of morphological changes in human HCT116 cells at 0.1 to 3 uM after 68 hrs by microscopic method; type: functional, cell-based

## COc1ccc(-c2nc(O)c3c4c(sc3n2)CCCC4)cc1
[1]
  IC50: 600 nM
[2]
  IC50: 700 nM
[3]
  IC50: 500 nM
[4]
  selectivity ratio: 17 to 28
[5]
  inhibition: Dose-dependent effect
[6]
  inhibition: Dose-dependent effect
[7]
  Activity: 37.5%
[8]
  Activity: 12.3%
[9]
  Activity: 47.1%
[10]
  Activity: 10.6%
[11]
  Activity: 4.17%
[12]
  Activity: 20.4%
[13]
  Activity: 44.6%
[14]
  Activity: 1.29%
[15]
  Activity: 57.8%
[16]
  Activity: 7.54%
[17]
  Activity: 15.5%
[18]
  Activity: Active
[19]
  Activity: Active
[20]
  Activity: Active
[21]
  Activity: Active
[22]
  Activity: Active
[23]
  Activity: Active
[24]
  viability at 1 µM: 87%
[25]
  Activity: 1.48%
[26]
  Activity: 25.9%
[27]
  Activity: 3.04%
[28]
  Activity: 4.31%
[29]
  viability at 2 µM: 73.9%
[30]
  Activity: 22.2%
[31]
  Activity: 0.057%
[32]
  Activity: 0%
[33]
  viability at 2 µM: 42.9%
[34]
  IC50: 1200 nM
[35]
  IC50: 1400 nM
[36]
  IC50: 1400 nM
[37]
  Activity: Active
